Values of other authors, collected in patent US12648914B2, “Injectable sustained release composition and method of using the same for treating inflammation in joints and pain associated therewith” (priority 2013, dated 2026).

Columns and labels:
[1] = reported, Möllmann et al. 1998, after inhaled administration
[2] = human subjects, 40 mg

EC50 [1] [ng/mL] | Compound | release profile after intra-articular administration [2]
0.007 to 0.03 | CCC(=O)O[C@]1(C(=O)SCF)[C@H](C)C[C@H]2[C@@H]3C[C@H](F)C4=CC(=O)C=C[C@]4(C)[C@@]3(F)[C@@H](O)C[C@@]21C [fluticasone propionate] | –
– | CC(C)(C)CC(=O)OCC(=O)[C@@]12OC(C)(C)O[C@@H]1C[C@H]1[C@@H]3CCC4=CC(=O)C=C[C@]4(C)[C@@]3(F)[C@@H](O)C[C@@]12C [triamcinolone hexacetonide] | significant initial burst followed by rapid decline
